Earlier results on one compound are cited in patent US20110166187A1, “METHODS OF USING SUSTAINED RELEASE AMINOPYRIDINE COMPOSITIONS” (priority 2004, published 2011).

This data set relates to voltage dependent, neuronal potassium channels.

Turning to `Nc1ccncc1` [fampridine, 4-aminopyridine], the “concentrations at which it appears to be a specific blocker of voltage dependent, neuronal potassium channels” value is 1 to 2 µM.
